In ChEMBL document CHEMBL1909046, “DrugMatrix in vitro pharmacology data”:

Key:
[1] = target: T1, Alpha-1A adrenergic receptor (Rattus norvegicus, UniProt P43140); test: DRUGMATRIX: Alpha-1A adrenergic receptor radioligand binding (ligand: prazosin); assay type: cell membranes, Wistar, Submaxillary gland, Membrane; conditions: Not Active = under 50% inhibition at 10 µM
T1 sequence (P43140 whole entry): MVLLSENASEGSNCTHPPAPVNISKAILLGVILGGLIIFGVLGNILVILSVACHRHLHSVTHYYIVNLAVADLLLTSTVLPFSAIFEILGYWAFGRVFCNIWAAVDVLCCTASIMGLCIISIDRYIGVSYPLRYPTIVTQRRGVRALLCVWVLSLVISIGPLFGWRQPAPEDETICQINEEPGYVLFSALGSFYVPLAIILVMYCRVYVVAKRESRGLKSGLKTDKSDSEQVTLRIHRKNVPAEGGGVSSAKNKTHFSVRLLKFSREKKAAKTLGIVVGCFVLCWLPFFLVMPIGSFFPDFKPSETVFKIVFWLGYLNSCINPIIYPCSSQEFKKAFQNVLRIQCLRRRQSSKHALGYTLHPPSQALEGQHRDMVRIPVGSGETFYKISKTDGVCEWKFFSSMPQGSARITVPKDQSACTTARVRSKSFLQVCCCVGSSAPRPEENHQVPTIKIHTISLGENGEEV

Substance-K receptor = target: T2, Substance-K receptor (Homo sapiens, UniProt P21452); assay type: cell membranes, CHO, Membrane; conditions: cho; note: in other assays of this panel Not Active means under 50% inhibition at 10 µM
T2 sequence (P21452 whole entry): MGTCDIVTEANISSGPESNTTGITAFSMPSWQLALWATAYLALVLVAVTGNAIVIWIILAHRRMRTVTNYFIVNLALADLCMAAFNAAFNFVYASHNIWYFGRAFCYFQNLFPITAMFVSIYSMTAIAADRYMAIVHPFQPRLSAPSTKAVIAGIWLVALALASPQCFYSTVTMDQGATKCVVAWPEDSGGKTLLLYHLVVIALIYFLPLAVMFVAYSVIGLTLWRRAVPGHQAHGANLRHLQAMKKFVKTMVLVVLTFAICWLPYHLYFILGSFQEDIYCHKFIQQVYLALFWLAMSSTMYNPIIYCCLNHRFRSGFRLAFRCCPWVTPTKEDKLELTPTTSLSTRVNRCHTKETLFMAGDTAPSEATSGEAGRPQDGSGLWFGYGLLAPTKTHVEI

[2] = DRUGMATRIX: Interleukin IL-1 radioligand binding (ligand: [125I] interleukin 1beta); assay type: cell membranes, Membrane; conditions: nih3t3; Not Active = under 50% inhibition at 10 µM
[3] = DRUGMATRIX: Platelet-Derived Growth Factor (PDGF) radioligand binding (ligand: [125I] PDGF); assay type: cell-based; conditions: nih3t3; Not Active = under 50% inhibition at 10 µM
Cathepsin G = target: T3, Cathepsin G (Homo sapiens, UniProt P08311); assay type: tissue-based; conditions: neutrophil;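 note: inhibition of Cathepsin G enzyme activity, tested on an AMC-conjugated peptide substrate; in other assays of this panel Not Active means under 50% inhibition at 10 µM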
T3 sequence (P08311 whole entry): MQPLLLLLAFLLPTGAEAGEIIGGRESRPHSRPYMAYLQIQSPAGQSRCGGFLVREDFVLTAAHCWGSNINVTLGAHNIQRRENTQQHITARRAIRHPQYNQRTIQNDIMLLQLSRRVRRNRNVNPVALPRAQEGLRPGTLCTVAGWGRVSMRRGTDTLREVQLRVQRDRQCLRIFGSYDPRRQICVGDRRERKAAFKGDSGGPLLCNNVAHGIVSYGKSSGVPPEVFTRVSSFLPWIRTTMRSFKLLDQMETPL

[4] = target: Tyrosine-protein kinase Lck (Homo sapiens, UniProt P06239); test: DRUGMATRIX: Protein Tyrosine Kinase, LCK enzyme inhibition (substrate: Poly(Glu:Tyr)); assay type: cell-based, Insect cells; conditions: insect cells; Not Active = under 50% inhibition at 10 µM
Sequence of Tyrosine-protein kinase Lck (P06239 whole entry): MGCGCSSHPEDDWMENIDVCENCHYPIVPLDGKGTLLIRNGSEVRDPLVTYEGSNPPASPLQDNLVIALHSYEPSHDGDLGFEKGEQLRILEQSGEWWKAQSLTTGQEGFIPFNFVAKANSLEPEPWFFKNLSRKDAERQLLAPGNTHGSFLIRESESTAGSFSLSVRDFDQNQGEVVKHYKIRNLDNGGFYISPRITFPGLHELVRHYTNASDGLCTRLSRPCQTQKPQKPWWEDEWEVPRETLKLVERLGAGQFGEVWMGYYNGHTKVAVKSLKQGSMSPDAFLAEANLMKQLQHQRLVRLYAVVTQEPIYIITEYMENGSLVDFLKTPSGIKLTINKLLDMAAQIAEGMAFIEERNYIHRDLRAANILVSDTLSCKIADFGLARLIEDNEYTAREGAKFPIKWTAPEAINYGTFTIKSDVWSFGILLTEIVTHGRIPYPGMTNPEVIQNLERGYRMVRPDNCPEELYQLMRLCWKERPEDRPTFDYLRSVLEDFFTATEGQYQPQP

CS(=O)(=O)OCCCCOS(C)(=O)=O [BUSULFAN]
Not Active: IC50 [1] | IC50 (Substance-K receptor) | IC50 [2] | Ki [2] | IC50 [3] | Ki [3] | IC50 (Cathepsin G) | IC50 [4]

Nc1nc(Cl)nc2c1ncn2[C@H]1C[C@H](O)[C@@H](CO)O1 [CLADRIBINE]
Not Active: IC50 [1] | IC50 (Substance-K receptor) | IC50 [2] | Ki [2] | IC50 [3] | Ki [3] | IC50 (Cathepsin G) | IC50 [4]

CC[C@H]1OC(=O)[C@H](C)[C@@H](O[C@H]2C[C@@](C)(OC)[C@@H](O)[C@H](C)O2)[C@H](C)[C@@H](O[C@@H]2O[C@H](C)C[C@H](N(C)C)[C@H]2O)[C@](C)(OC)C[C@@H](C)C(=O)[C@H](C)[C@@H](O)[C@]1(C)O [CLARITHROMYCIN]
Not Active: IC50 [1] | IC50 (Substance-K receptor) | IC50 [2] | Ki [2] | IC50 [3] | Ki [3] | IC50 (Cathepsin G) | IC50 [4]

CCN[C@@H](C)Cc1cccc(C(F)(F)F)c1 [DEXFENFLURAMINE]
Not Active: IC50 [1] | IC50 (Substance-K receptor) | IC50 [2] | Ki [2] | IC50 [3] | Ki [3] | IC50 (Cathepsin G) | IC50 [4]

CN1C(=O)CN=C(c2ccccc2)c2cc(Cl)ccc21 [DIAZEPAM]
Not Active: IC50 [1] | IC50 (Substance-K receptor) | IC50 [2] | Ki [2] | IC50 [3] | Ki [3] | IC50 (Cathepsin G) | IC50 [4]

C=C(CC)C(=O)c1ccc(OCC(=O)O)c(Cl)c1Cl [ETHACRYNIC ACID]
Not Active: IC50 [1] | IC50 (Substance-K receptor) | IC50 [2] | Ki [2] | IC50 [3] | Ki [3] | IC50 (Cathepsin G) | IC50 [4]

OCCO [ETHYLENE GLYCOL]
Not Active: IC50 [1] | IC50 (Substance-K receptor) | IC50 [2] | Ki [2] | IC50 [3] | Ki [3] | IC50 (Cathepsin G) | IC50 [4]

O=C(O)Cc1ccc(-c2ccccc2)cc1 [FELBINAC]
Not Active: IC50 [1] | IC50 (Substance-K receptor) | IC50 [2] | Ki [2] | IC50 [3] | Ki [3] | IC50 (Cathepsin G) | IC50 [4]

N=C(N)N/N=C/c1c(Cl)cccc1Cl [GUANABENZ]
Not Active: IC50 (Substance-K receptor) | IC50 [2] | Ki [2] | IC50 [3] | Ki [3] | IC50 (Cathepsin G) | IC50 [4]

C/C=C\c1ccc(O)c(OC)c1 [ISOEUGENOL]
Not Active: IC50 [1] | IC50 (Substance-K receptor) | IC50 [2] | Ki [2] | IC50 [3] | Ki [3] | IC50 (Cathepsin G) | IC50 [4]

NC[C@H]1O[C@H](O[C@H]2[C@H](O)[C@@H](O[C@H]3O[C@H](CO)[C@@H](O)[C@H](N)[C@H]3O)[C@H](N)C[C@@H]2N)[C@H](O)[C@@H](O)[C@@H]1O [KANAMYCIN]
Not Active: IC50 [1] | IC50 (Substance-K receptor) | IC50 [2] | Ki [2] | IC50 [3] | Ki [3] | IC50 (Cathepsin G) | IC50 [4]

CC(=O)O[C@]1(C(C)=O)CC[C@H]2[C@@H]3C=C(C)C4=CC(=O)CC[C@]4(C)[C@H]3CC[C@@]21C [MEGESTROL ACETATE]
Not Active: IC50 [1] | IC50 (Substance-K receptor) | IC50 [2] | Ki [2] | IC50 [3] | Ki [3] | IC50 (Cathepsin G) | IC50 [4]

COc1ccccc1OCC(O)COC(N)=O (stereo not drawn) [METHOCARBAMOL]
Not Active: IC50 [1] | IC50 (Substance-K receptor) | IC50 [2] | Ki [2] | IC50 [3] | Ki [3] | IC50 (Cathepsin G) | IC50 [4]
